According to article PMC10180520, “Phytochemical Analysis and Profiling of Antioxidants and Anticancer Compounds from Tephrosia purpurea (L.) subsp. apollinea Family Fabaceae” (Molecules, 2023):
≈ marks a conversion by molar mass, not a printed value. Values belong to the compound of their own block, whether it stands above or below them.

Legend:
[1] = DPPH radical scavenging assay; format: biochemical
Procedure: Each methanolic extract concentration (1 mL) was added to 3 mL of 0.1 mM DPPH solubilized in methanol, followed by shaking and placing it into a dark chamber for 30 min. When DPPH reacts with an H-donating antioxidant, it is scavenged, thereby resulting in a decrease in absorbance. The optical density of each concentration was measured at 517 nm in a UV-Vis spectrophotometer. Ascorbic acid was used as an antioxidant standard. All the values were measured in triplicate.

breast cancer (MCF7) = assay: MTT assay, breast cancer (MCF7); format: cell-based
Procedure: (§1) Breast cancer cell lines (MCF7), osteosarcoma (MG63), breast ductal carcinoma (T47D), leukemia (U937), as well as HeLa, PC3, and healthy pulmonary fibroblast were supplied by the tissue culture laboratory at Vacsera, Egypt. The culturing procedure was maintained sterile, utilizing a laminar airflow cabinet. The cells were cultured in Roswell Park Memorial Institute medium (RPMI 1640). The medium was provided with antibiotics (streptomycin and penicillin) as well as antifungal agents (amphotericin B) and L-glutamine. It was also supplemented with 10% heat-inactivated fetal bovine serum.
(§2) Cell viability was measured using a 3-(4,5-dimethylthiazol-2-yl)-2,5-diphenyl-2H-tetrazolium bromide (MTT) assay. The principle of the MTT assay is that through mitochondrial reduction, purple-colored crystals are produced from the yellowish MTT [80]. […]
(§3) Using a growth medium, serial dilutions of the dimethyl sulfoxide (DMSO)-solubilized extract were produced at concentrations of 31.25, 62.5, 125, 250, 500, and 1000 µg/mL [80]. […] A microplate reader was used to measure the optical density of the formazan solution at 560 nm, with values corrected using a background reference λ of 620 nm. […]
(§4) The IC50 profiles of methanol extract of T. purpurea subsp. apollinea and a positive control for cancer and healthy cell lines were determined with GraphPad Prism version 7 (GraphPad Software Inc., San Diego, CA, USA). […]

osteosarcoma (MG63) = assay: MTT assay, osteosarcoma (MG63); format: cell-based
Procedure: as §1, §2, §3, §4

[2] = tested on: breast ductal carcinoma (T47D); assay: MTT assay, breast ductal carcinoma (T47D); format: cell-based
Procedure: as §1, §2, §3, §4

cervical cancer (HeLa) = assay: MTT assay, cervical cancer (HeLa); format: cell-based
Procedure: as §1, §2, §3, §4

prostate cancer (PC3) = assay: MTT assay, prostate cancer (PC3); format: cell-based
Procedure: as §1, §2, §3, §4

leukemia (U937) = assay: MTT assay, leukemia (U937); format: cell-based
Procedure: as §1, §2, §3, §4

[3] = tested on: normal human fetal lung fibroblast (WI38); assay: MTT assay, normal human fetal lung fibroblast (WI38); format: cell-based; settings: WI-38, WI38 normal cells, 24 h
Procedure: as §1, §2, §3, §4

MCF7 = assay: Light microscopy of treated cells, MCF7; format: cell-based; settings: MCF7, 250 µg/mL (Figure 8)
Source text: (§5) Morphologies of cells treated with the various methanol T. purpurea subsp. apollinea extract concentrations were investigated under light microscopy at 10× objective lens, total magnification = 100×.

MG63 = assay: Light microscopy of treated cells, MG63; format: cell-based; settings: MG63, 250 µg/mL (Figure 8)
Source text: as §5

T47D = assay: Light microscopy of treated cells, T47D; format: cell-based; settings: 250 µg/mL (Figure 8)
Source text: as §5

HeLa = assay: Light microscopy of treated cells, HeLa; format: cell-based; settings: 250 µg/mL (Figure 8)
Source text: as §5

PC3 = assay: Light microscopy of treated cells, PC3; format: cell-based; settings: PC3, 250 µg/mL (Figure 8)
Source text: as §5

[4] = ABTS radical scavenging assay; format: biochemical
Procedure: Distilled water was used to bring up a 50-mL volumetric flask to mark after dissolving 192 mg of 2,2′-azino-bis(3-ethylbenzothiazoline-6-sulfonic acid) (ABTS) in a small volume of water and transferring it to the flask, followed by addition of 1 mL of this solution to 17 μL 0.14 M K2S2O8, and incubation in darkness for 24 h. To prepare the final ABTS dilution for the T. purpurea subsp. apollinea extract, 1 mL of reaction mixture was added to 49 mL of methanol. Then, 0.190 mL of newly made ABTS solution was mixed with 0.010 mL of plant extract in a 96-well plate and kept in the dark for 30 min. Thereafter, a decrease in ABTS OD was read at 734 nm in a FluoStar Omega microplate reader. Trolox was used as an antioxidant standard. All the values were measured in triplicate.

IC50 of DPPH radical scavenging ([1]; mean ± standard deviation): ^a IC50 = 4.8 ± 0.1 μg/mL
SMILES: O=C1O[C@H]([C@@H](O)CO)C(O)=C1O [Ascorbic Acid, Ascorbic acid]
DPPH Scavenging% ([1]; Conc. 1.95 µg/mL): 41.8 ± 0.5%
DPPH Scavenging% ([1]; Conc. 3.9 µg/mL): 45.9 ± 0.1%
DPPH Scavenging% ([1]; Conc. 7.8125 µg/mL): 56.2 ± 0.2%
DPPH Scavenging% ([1]; Conc. 15.625 µg/mL): 64.2 ± 0.3%
DPPH Scavenging% ([1]; Conc. 31.25 µg/mL): 71.2 ± 0.2%
DPPH Scavenging% ([1]; Conc. 62.5 µg/mL): 77.9 ± 0.3%
DPPH Scavenging% ([1]; Conc. 125 µg/mL): 86.4 ± 0.3%
DPPH Scavenging% ([1]; Conc. 250 µg/mL): 92.7 ± 0.2%
DPPH Scavenging% ([1]; Conc. 500 µg/mL): 94.5 ± 0.2%
DPPH Scavenging% ([1]; Conc. 1000 µg/mL): 97.1 ± 0.1%

IC50 (breast cancer (MCF7); MCF7, MTT, 24 h): 37.4 ± 0.1 µg/mL (≈ 68.8 µM)
IC50 (osteosarcoma (MG63); Homo sapiens, MG-63, MG63, MTT, 24 h): 19 ± 0.3 µg/mL (≈ 35 µM)
IC50 ([2]; Homo sapiens, T47D, MTT, 24 h): 7 ± 0.1 µg/mL (≈ 12.9 µM)
IC50 (cervical cancer (HeLa); Homo sapiens, HeLa, MTT, 24 h): 41.9 ± 0.1 µg/mL (≈ 77.1 µM)
IC50 (prostate cancer (PC3); PC3, MTT, 24 h): 46.3 ± 0.2 µg/mL (≈ 85.2 µM)
IC50 (leukemia (U937); Homo sapiens, U-937, U937, MTT, 24 h): 41.7 ± 0.9 µg/mL (≈ 76.7 µM)
SMILES: COc1cccc2c1C(=O)c1c(O)c3c(c(O)c1C2=O)C[C@@](O)(C(=O)CO)C[C@@H]3O[C@H]1C[C@H](N)[C@H](O)[C@H](C)O1 [Doxorubicin]
SI (selectivity index) (breast cancer (MCF7); IC50 for WI38 / IC50 for MCF7): 0.5
SI (selectivity index) (osteosarcoma (MG63); IC50 for WI38 / IC50 for MG63): 1.0
SI (selectivity index) ([2]; IC50 for WI38 / IC50 for T47D): 2.8
SI (selectivity index) (cervical cancer (HeLa); IC50 for WI38 / IC50 for HeLa): 0.4
SI (selectivity index) (prostate cancer (PC3); IC50 for WI38 / IC50 for PC3): 0.4
SI (selectivity index) (leukemia (U937); IC50 for WI38 / IC50 for U937): 0.4
IC50 [3]: 20.1 ± 0.1 µg/mL (≈ 37 µM)
cell morphology (MCF7): rounded and shrunk cells
cell morphology (MG63): rounded and shrunk cells
cell morphology (T47D): rounded and shrunk cells
cell morphology (HeLa): rounded and shrunk cells
cell morphology (PC3): rounded and shrunk cells

IC50 of ABTS radical scavenging ([4]; mean ± standard deviation): ^a IC50 = 2.9 ± 0.1 μg/mL
SMILES: Cc1c(C)c2c(c(C)c1O)CCC(C)(C(=O)O)O2 (centres unmarked) [Trolox]
ABTS Scavenging% ([4]; Conc. 0.6 µg/mL): 9.9 ± 0.3%
ABTS Scavenging% ([4]; Conc. 1.3 µg/mL): 18.6 ± 0.4%
ABTS Scavenging% ([4]; Conc. 3.8 µg/mL): 49.6 ± 2.6%
ABTS Scavenging% ([4]; Conc. 6.2 µg/mL): 83.6 ± 1.9%
ABTS Scavenging% ([4]; Conc. 8.8 µg/mL): 92.6 ± 0.2%
